Results from patent publication US20060293307A1, “Oxazolidinone derivatives as antimicrobials” (priority 2002, published 2006).
Converted amounts (≈) assume the structure as drawn.

How the values were obtained:
Test in all cases: MIC, agar incorporation method
P. aeruginosa ATCC 27853 = format: cell-based; conditions: S. No. 28, P. aeruginosa ATCC 27853
[1] = test system: S. aureus (MRSA 33) Cipro R; format: cell-based, Staphylococcus aureus; conditions: S. No. 7, S. aureus (MRSA 33) Cipro R
S. pneumoniae AB 23 = format: cell-based, Streptococcus pneumoniae; conditions: S. No. 43, S. pneumoniae AB 23
S. pyogenes 25147 = format: cell-based, Streptococcus pyogenes; conditions: S. No. 52, S. pyogenes 25147
S. pneumoniae AB 10 = format: cell-based, Streptococcus pneumoniae; conditions: S. No. 35, S. pneumoniae AB 10
[2] = test system: S. epidermidis ATCC 12228; format: cell-based, Staphylococcus epidermidis; conditions: S. No. 10, S. epidermidis ATCC 12228
S. pneumoniae AB 22 = format: cell-based, Streptococcus pneumoniae; conditions: S. No. 42, S. pneumoniae AB 22
E. faecalis 29212 = format: cell-based; conditions: S. No. 17, E. faecalis 29212
S. aureus (MRSA) 15187 = format: cell-based, Staphylococcus aureus; conditions: S. No. 4, S. aureus (MRSA) 15187
S. pneumoniae AB 25 = format: cell-based, Streptococcus pneumoniae; conditions: S. No. 45, S. pneumoniae AB 25
E. faecalis 21777 = format: cell-based; conditions: S. No. 18, E. faecalis 21777
S. pneumoniae AB 29 = format: cell-based, Streptococcus pneumoniae; conditions: S. No. 46, S. pneumoniae AB 29
S. haemo ATCC 29970 = format: cell-based; conditions: S. No. 15, S. haemo ATCC 29970
S. pneumoniae AB 16 = format: cell-based, Streptococcus pneumoniae; conditions: S. No. 39, S. pneumoniae AB 16
E. coli 25922 = format: cell-based; conditions: S. No. 25, E. coli 25922
S. pyogenes 20361 = format: cell-based, Streptococcus pyogenes; conditions: S. No. 53, S. pyogenes 20361
K. oxytoca 49131 = format: cell-based; conditions: S. No. 27, K. oxytoca 49131
S. epidermidis 823 = format: cell-based, Staphylococcus epidermidis; conditions: S. No. 12, S. epidermidis 823
S. pneumoniae AB 14 = format: cell-based, Streptococcus pneumoniae; conditions: S. No. 37, S. pneumoniae AB 14
Moraxella M1 = format: cell-based; conditions: S. No. 58, Moraxella M1
S. pneumoniae AB4 = format: cell-based, Streptococcus pneumoniae; conditions: S. No. 33, S. pneumoniae AB4
[3] = test system: Serratia marcescens 12999; format: cell-based; conditions: S. No. 29, Serratia marcescens 12999
S. pyogenes 19615 = format: cell-based, Streptococcus pyogenes; conditions: S. No. 51, S. pyogenes 19615
S. pneumoniae AB-2 = format: cell-based, Streptococcus pneumoniae; conditions: S. No. 31, S. pneumoniae AB-2
S. pneumoniae AB 30 = format: cell-based, Streptococcus pneumoniae; conditions: S. No. 47, S. pneumoniae AB 30
S. aureus ATCC 25923 = format: cell-based, Staphylococcus aureus; conditions: S. No. 1, organism cell empty
S. pneumoniae AB 17 = format: cell-based, Streptococcus pneumoniae; conditions: S. No. 40, S. pneumoniae AB 17
E. faecium 6A (VRE) = format: cell-based, Enterococcus faecium; conditions: S. No. 21, E. faecium 6A (VRE)
S. pneumoniae AB 21 = format: cell-based, Streptococcus pneumoniae; conditions: S. No. 41, S. pneumoniae AB 21
Acinetobacter 9956 = format: cell-based; conditions: S. No. 30, Acinetobacter 9956
E. durans 581 = format: cell-based; conditions: S. No. 24, E. durans 581
S. pneumoniae CS1221 = format: cell-based, Streptococcus pneumoniae; conditions: S. No. 34, S. pneumoniae CS1221
E. faecium 398(VRE) = format: cell-based, Enterococcus faecium; conditions: S. No. 22, E. faecium 398(VRE)
S. pneumoniae ATCC 6303 = format: cell-based, Streptococcus pneumoniae; conditions: S. No. 50, S. pneumoniae ATCC 6303
S. epidermidis 358 = format: cell-based, Staphylococcus epidermidis; conditions: S. No. 14, S. epidermidis 358
S. aureus (MRSA) 21299 = format: cell-based, Staphylococcus aureus; conditions: S. No. 5, S. aureus (MRSA) 21299

Row | Structure (SMILES) | MIC (P. aeruginosa ATCC 27853) | MIC [1] | MIC (S. pneumoniae AB 23) | MIC (S. pyogenes 25147) | MIC (S. pneumoniae AB 10) | MIC [2] | MIC (S. pneumoniae AB 22) | MIC (E. faecalis 29212) | MIC (S. aureus (MRSA) 15187) | MIC (S. pneumoniae AB 25) | MIC (E. faecalis 21777) | MIC (S. pneumoniae AB 29) | MIC (S. haemo ATCC 29970) | MIC (S. pneumoniae AB 16) | MIC (E. coli 25922) | MIC (S. pyogenes 20361) | MIC (K. oxytoca 49131) | MIC (S. epidermidis 823) | MIC (S. pneumoniae AB 14) | MIC (Moraxella M1) | further results
1 | O=C(NC[C@H]1CN(c2ccc(N3CCN(c4ccc([N+](=O)[O-])s4)CC3)c(F)c2)C(=O)O1)C(Cl)Cl [compound 9, (S)—N-[[3-[-3-Fluoro-4-[N-1-(5-nitro-2-thienyl)-piperazinyl]phenyl] -2-oxo-5-oxazolidinyl]methyl]dichloroacetamide] | >8 µg/mL | 1 µg/mL (≈ 1.88 µM) | 0.25 µg/mL (≈ 0.47 µM) | 0.5 µg/mL (≈ 0.939 µM) | 0.25 µg/mL (≈ 0.47 µM) | 0.25 µg/mL (≈ 0.47 µM) | 0.25 µg/mL (≈ 0.47 µM) | 1 µg/mL (≈ 1.88 µM) | 1 µg/mL (≈ 1.88 µM) | 0.25 µg/mL (≈ 0.47 µM) | 0.5 µg/mL (≈ 0.939 µM) | 0.25 µg/mL (≈ 0.47 µM) | 0.5 µg/mL (≈ 0.939 µM) | 0.25 µg/mL (≈ 0.47 µM) | >8 µg/mL | 0.5 µg/mL (≈ 0.939 µM) | >8 µg/mL | 0.5 µg/mL (≈ 0.939 µM) | 0.25 µg/mL (≈ 0.47 µM) | 1 µg/mL (≈ 1.88 µM) | MIC (S. pneumoniae AB4): 0.25 µg/mL (≈ 0.47 µM); MIC [3]: >8 µg/mL; MIC (S. pyogenes 19615): 0.5 µg/mL (≈ 0.939 µM); MIC (S. pneumoniae AB-2): 0.25 µg/mL (≈ 0.47 µM); MIC (S. pneumoniae AB 30): 0.25 µg/mL (≈ 0.47 µM); MIC (S. aureus ATCC 25923): 2 µg/mL (≈ 3.76 µM); MIC (S. pneumoniae AB 17): 0.25 µg/mL (≈ 0.47 µM); MIC (E. faecium 6A (VRE)): 0.5 µg/mL (≈ 0.939 µM); MIC (S. pneumoniae AB 21): 0.25 µg/mL (≈ 0.47 µM); MIC (Acinetobacter 9956): >8 µg/mL; MIC (E. durans 581): 0.5 µg/mL (≈ 0.939 µM); MIC (S. pneumoniae CS1221): 0.25 µg/mL (≈ 0.47 µM); MIC (E. faecium 398(VRE)): 0.5 µg/mL (≈ 0.939 µM); MIC (S. pneumoniae ATCC 6303): 0.25 µg/mL (≈ 0.47 µM); MIC (S. epidermidis 358): 0.5 µg/mL (≈ 0.939 µM); MIC (S. aureus (MRSA) 21299): 1 µg/mL (≈ 1.88 µM)
2 | CC(=O)NC[C@H]1CN(c2ccc(N3CCN(c4ccc([N+](=O)[O-])s4)CC3)cc2)C(=O)O1 [Compound No. 6, (S)—N-[[3-[4-[N-1-(5-nitro-2-thienyl)piperazinyl]-phenyl]-2-oxo-5-oxazolidinyl]-methyl]-acetamide] | >16 µg/mL | 1 µg/mL (≈ 2.24 µM) | 0.5 µg/mL (≈ 1.12 µM) | 0.5 µg/mL (≈ 1.12 µM) | 0.25 µg/mL (≈ 0.561 µM) | 1 µg/mL (≈ 2.24 µM) | 0.25 µg/mL (≈ 0.561 µM) | 1 µg/mL (≈ 2.24 µM) | 2 µg/mL (≈ 4.49 µM) | 0.5 µg/mL (≈ 1.12 µM) | 1 µg/mL (≈ 2.24 µM) | 0.5 µg/mL (≈ 1.12 µM) | 1 µg/mL (≈ 2.24 µM) | 0.5 µg/mL (≈ 1.12 µM) | >16 µg/mL | 0.5 µg/mL (≈ 1.12 µM) | >16 µg/mL | 1 µg/mL (≈ 2.24 µM) | <0.125 µg/mL | >16 µg/mL | MIC (S. pneumoniae AB4): 0.25 µg/mL (≈ 0.561 µM); MIC [3]: >16 µg/mL; MIC (S. pyogenes 19615): 0.5 µg/mL (≈ 1.12 µM); MIC (S. pneumoniae AB-2): 0.25 µg/mL (≈ 0.561 µM); MIC (S. pneumoniae AB 30): 0.5 µg/mL (≈ 1.12 µM); MIC (S. aureus ATCC 25923): 2 µg/mL (≈ 4.49 µM); MIC (S. pneumoniae AB 17): 0.25 µg/mL (≈ 0.561 µM); MIC (E. faecium 6A (VRE)): 1 µg/mL (≈ 2.24 µM); MIC (S. pneumoniae AB 21): 0.5 µg/mL (≈ 1.12 µM); MIC (Acinetobacter 9956): >16 µg/mL; MIC (E. durans 581): 1 µg/mL (≈ 2.24 µM); MIC (S. pneumoniae CS1221): 0.25 µg/mL (≈ 0.561 µM); MIC (E. faecium 398(VRE)): 1 µg/mL (≈ 2.24 µM); MIC (S. pneumoniae ATCC 6303): 0.5 µg/mL (≈ 1.12 µM); MIC (S. epidermidis 358): 1 µg/mL (≈ 2.24 µM); MIC (S. aureus (MRSA) 21299): 1 µg/mL (≈ 2.24 µM)
